# Data published in patent publication US20080033026A1, “Antimicrobial compositions, methods and systems” (priority 2006, published 2008).
# Assays:
# [1] = system: Bacillus cereus ATCC 14579; experiment: Growth inhibition in MRS medium at various pH levels (OD600); type: cell-based; settings: 0.1% w/v (as 9DA)
# Experimental: (§1) Efficacy of potassium salts of 9-DA was tested at various pH levels against the following: Serratia marcescens ATCC 990, and Bacillus cereus ATCC 14579.
# (§2) Stock cultures of each organism were transferred into MRS liquid medium. MRS medium (Difco 288130) was purchased from Becton, Dickinson and Company, Sparks, Md.
# (§3) The efficacy of potassium salts of 9-DA (K-9-DA) was tested at different concentrations and pH levels, including 6.75 (unadjusted), 7.5, and 8.5.
# (§4) The selected organisms were incubated overnight in 5 ml of MRS medium at 35° C. and 250 rpm. MRS media with K-9-DA were prepared, along with a control of straight media (no antimicrobial added). The antimicrobial agents were added by weight/volume percent to the media. The purity of the composition, 99% for K-9-DA, was taken into account. The pH adjustments to 7.5 and 8.5 were done with 50% potassium hydroxide. Filter sterilization was used instead of autoclaving to prevent adverse chemical reactions at higher pH and temperature. The target for initial cell density was 10^5 to 10^6 cfu/ml. According to the McFarland standard, 0.01 OD600 is equivalent to approximately 10^8 cfu/ml. To achieve the proper dilution, 30 μl of overnight culture diluted to 0.01 OD600 was added to the 3 ml of media in each tube. The tubes were incubated at 35° C. with the exception of Pseudomonas strains which were incubated at 30° C. Treatments were all done in duplicate. All strains were shaken at 250 rpm. OD600 readings were taken at 0, 19, 25.5, 42.5 and 49 hours.
# (§5) “Percent reduction in growth vs. control” was defined as (1−abs. of treatment/abs. of control)×100.
# [2] = system: Serratia marcescens ATCC 990; experiment: as above; type: cell-based; settings: 0.1% w/v (as 9DA)
# Experimental: as §1, §2, §3, §4, §5
# Pseudomonas straminea = experiment: as above; type: cell-based; settings: 0.075% w/v (as 9DA)
# [3] = system: all organisms tested in Tables 15-17 with the exception of Serratia marcescens; experiment: Growth inhibition in MRS medium at various pH levels, organisms of Tables 15-17 except Serratia marcescens; type: cell-based
# Experimental: as §1, §2, §3
# as §4, with “The tubes were incubated at 35° C. with the exception of Pseudomonas strains which were incubated at 30° C. Treatments were all done in duplicate. All strains were shaken at 250 rpm.” left out, “hours. […]” for “hours.”
# [4] = Solubility studies in water and isopropanol (GC/FID); type: physicochemical; settings: mg 9-decenoic acid/g solvent
# Experimental: For the antimicrobial agents of Formulae I-III, the solubility in an aqueous and an alcohol environment was studied. Solubility studies were carried out with the sodium (Na) and potassium (K) salts of 9-decenoic acid in water and isopropanol (IPA). Six samples were analyzed. The samples were as follows: Na salt in water, Na salt in IPA, K salt in water, K salt in IPA, 9-decenoic acid (protonated) in water, 9-decenoic acid (protonated) in IPA. For the protonated form of the acids, the samples were acidified and diluted in IPA and subjected to analysis by gas chromatography/flame ionization detector (GC/FID). The same procedure was followed for the Na and K salts in IPA. For the Na and K salts in water, the samples were acidified and then extracted with petroleum ether. The petroleum ether was then evaporated, and the samples were reconstituted in IPA, acidified and subjected to analysis by GC/FID. Concentrations were calculated by comparing the peak area of the sample to a calibration table of 9-decenoic acid. The calibration curve was linear from 1 mg/g to 500 mg/g. Results are reported in mg/g (mg 9-decenoic acid/g solvent).
# [5] = system: Bacillus cereus ATCC 14579; experiment: Growth inhibition in MRS medium (OD600); type: cell-based; settings: n = 2
# Experimental: (§6) Efficacy of potassium salts of 9-DA were determined through incubation of the following organisms in the presence of varying concentrations of the potassium salt: Serratia marcescens ATCC 990, Pseudomonas straminea ATCC 33636, Bacillus subtilis ATCC 6051, Bacillus licheniformis ATCC 14580, Bacillus cereus ATCC 14579, Pediococcus acidilactici ATCC 8042, and Lactobacillus casei ATCC 334.
# as §2
# (§7) The efficacy of different levels of potassium salts of 9-DA (K-9-DA) was tested depending on the organism to inhibit the growth of various microorganisms indicated above.
# (§8) The selected organisms were incubated overnight in 5 ml of MRS medium at 35° C. and 250 rpm. MRS media with K-9-DA were prepared, along with a control of straight media (no antimicrobial added). The concentrated antimicrobial agents were diluted with the appropriate media required for the respective microorganisms, to reach the required concentrations for the studies as indicated below. The antimicrobial agents were added by weight/volume percent on an ‘as 9-DA’ basis to the media. The purity of the antimicrobial agent (99% for K-9-DA) was taken into account. The pH of the medium was not adjusted. The target for initial cell density was 10^5 to 10^6 cfu/ml. According to the McFarland standard, 0.01 OD600 is equivalent to approximately 10^8 cfu/ml. To achieve the proper dilution, 30 μl of overnight culture diluted to 0.01 OD600 was added to the 3 ml of media in each tube. The tubes were incubated at 35° C. Treatments were all done in duplicate. All strains were shaken at 250 rpm, with the exception of Lactobacillus (because it is anaerobic). OD600 readings were taken at 0, 4, 17, 23 and 47 hours.
# (§9) “Percent reduction in comparison with control” was defined as (1−abs. of treatment/abs. of control)×100.
# [6] = system: Bacillus licheniformis ATCC 14580; experiment: Growth inhibition in MRS medium (OD600); type: cell-based; settings: n = 2
# Experimental: as §6, §2, §7, §8, §9
# [7] = system: Lactobacillus casei ATCC 334; experiment: Growth inhibition in MRS medium (OD600); type: cell-based; settings: n = 2
# Experimental: as §6, §2, §7, §8, §9
# [8] = system: Pediococcus acidilactici ATCC 8042; experiment: Growth inhibition in MRS medium (OD600); type: cell-based; settings: n = 2
# Experimental: as §6, §2, §7, §8, §9
# [9] = system: Bacillus subtilis ATCC 6051; experiment: Growth inhibition in MRS medium (OD600); type: cell-based; settings: n = 2
# Experimental: as §6, §2, §7, §8, §9
# [10] = system: Pseudomonas straminea ATCC 33636; experiment: Growth inhibition in MRS medium (OD600); type: cell-based; settings: n = 2
# Experimental: as §6, §2, §7, §8, §9
# [11] = system: Serratia marcescens ATCC 990; experiment: Growth inhibition in MRS medium (OD600); type: cell-based; settings: n = 2
# Experimental: as §6, §2, §7, §8, §9
# [12] = system: organisms of Table 14 with the exception of Serratia marcescens, Bacillus licheniformis, and Lactobacillus casei; experiment: Growth inhibition in MRS medium (OD600), organisms of Table 14 except Serratia marcescens, Bacillus licheniformis, Lactobacillus casei; type: cell-based; settings: all concentrations tested
# Experimental: as §6, §2, §7
# The selected organisms were incubated overnight in 5 ml of MRS medium at 35° C. and 250 rpm. MRS media with K-9-DA were prepared, along with a control of straight media (no antimicrobial added). The concentrated antimicrobial agents were diluted with the appropriate media required for the respective microorganisms, to reach the required concentrations for the studies as indicated below. The antimicrobial agents were added by weight/volume percent on an ‘as 9-DA’ basis to the media. The purity of the antimicrobial agent (99% for K-9-DA) was taken into account. The pH of the medium was not adjusted. […] OD600 readings were taken at 0, 4, 17, 23 and 47 hours. […]
smiles,measurement,setting,value
C=CCCCCCCCC(=O)O.[K] [Potassium-9 Decenoic Acid],% reduction in growth vs. control,[1]; Non-pH adjusted (6.75),96.5%
same,% reduction in growth vs. control,[1]; pH 7.5,96.2%
same,% reduction in growth vs. control,[1]; pH 8.5,93.9%
same,% reduction in growth vs. control,[2]; Non-pH adjusted (6.75),98.5%
same,% reduction in growth vs. control,[2]; pH 7.5,18.5%
same,% reduction in growth vs. control,[2]; pH 8.5,37.4%
same,% reduction in growth vs. control,Pseudomonas straminea; Non-pH adjusted (6.75),98.6%
same,% reduction in growth vs. control,Pseudomonas straminea; pH 7.5,96.2%
same,% reduction in growth vs. control,Pseudomonas straminea; pH 8.5,93.9%
same,reduction in growth,"[3]; pH 7.5, concentrations of Tables 15-17",96%
same,reduction in growth,"[3]; pH 8.5, concentrations of Tables 15-17",94%
same,"Solubility, Concentration",[4]; in isopropanol,10 mg/g
same,"Solubility, Concentration",[4]; in water,240 mg/g
same,% reduction in growth vs. control,[5]; 0.075% w/v 9DA from K9DA,98.4%
same,Abs at 600 nm,[5]; 0.075% w/v 9DA from K9DA,0.093
same,% reduction in growth vs. control,[5]; 0.1% w/v 9DA from K9DA,96.2%
same,Abs at 600 nm,[5]; 0.1% w/v 9DA from K9DA,0.216
same,% reduction in growth vs. control,[6]; 0.075% w/v 9DA from K9DA,88.6%
same,Abs at 600 nm,[6]; 0.075% w/v 9DA from K9DA,0.300
same,% reduction in growth vs. control,[6]; 0.1% w/v 9DA from K9DA,99.1%
same,Abs at 600 nm,[6]; 0.1% w/v 9DA from K9DA,0.023
same,% reduction in growth vs. control,[7]; 0.05% w/v 9DA from K9DA,93.3%
same,Abs at 600 nm,[7]; 0.05% w/v 9DA from K9DA,0.461
same,% reduction in growth vs. control,[7]; 0.075% w/v 9DA from K9DA,96.9%
same,Abs at 600 nm,[7]; 0.075% w/v 9DA from K9DA,0.211
same,% reduction in growth vs. control,[8]; 0.025% w/v 9DA from K9DA,100.0%
same,Abs at 600 nm,[8]; 0.025% w/v 9DA from K9DA,−0.038
same,% reduction in growth vs. control,[8]; 0.05% w/v 9DA from K9DA,96.1%
same,Abs at 600 nm,[8]; 0.05% w/v 9DA from K9DA,0.224
same,% reduction in growth vs. control,[9]; 0.05% w/v 9DA from K9DA,97.3%
same,Abs at 600 nm,[9]; 0.05% w/v 9DA from K9DA,0.157
same,% reduction in growth vs. control,[9]; 0.075% w/v 9DA from K9DA,98.4%
same,Abs at 600 nm,[9]; 0.075% w/v 9DA from K9DA,0.094
same,% reduction in growth vs. control,[10]; 0.05% w/v 9DA from K9DA,96.9%
same,Abs at 600 nm,[10]; 0.05% w/v 9DA from K9DA,0.190
same,% reduction in growth vs. control,[10]; 0.075% w/v 9DA from K9DA,97.3%
same,Abs at 600 nm,[10]; 0.075% w/v 9DA from K9DA,0.165
same,% reduction in growth vs. control,[11]; 0.075% w/v 9DA from K9DA,97.7%
same,Abs at 600 nm,[11]; 0.075% w/v 9DA from K9DA,0.181
same,% reduction in growth vs. control,[11]; 0.1% w/v 9DA from K9DA,94.6%
same,Abs at 600 nm,[11]; 0.1% w/v 9DA from K9DA,0.412
same,reduction in growth when compared to controls,[12],≥ 96%
